Measured values published in patent US4294833A, “Substituted 4-hydroxy-isophthalic acid picolylamides having a pharmaceutical activity in thromboembolic disorders” (Societa Italo-Britannica, priority 1977, dated 1981).

Experiments:
[1] = test system: platelet aggregation induced by ADP; assay: Platelet aggregation inhibitory activity in vivo (Born aggregometer), ADP-induced; set-up: species or system New Zealand rabbits; conditions: dose for 50% inhibition of ADP-induced aggregation curve, rabbits, intraperitoneal, blood 2, 4 and 6 hours after injection; for ED50: Oryctolagus cuniculus, Platelet, ip, read-out: platelet antiaggregant activity (AAP), DI50, ADP
Outline: (§1)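 Fasted New Zealand rabbits under Nembutal anaesthesia (35 mg/kg i.m.) received compound intraperitoneally. Carotid blood was taken before and 2, 4 and 6 h after dosing and citrated to prepare PRP for ADP- or thrombin-induced Born aggregometry. DI50 (mg/kg) is the dose halving the aggregation curve relative to the same animal's pre-dose plasma.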

male Swiss mice = assay: Acute toxicity, intraperitoneal; set-up: acute toxicity (LD50 / DL50): unit: mg/kg; conditions: mouse, in vivo
Outline: (§2)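 Male Swiss mice (20±2 g), fasted 18 h with water ad libitum, were dosed intraperitoneally and observed for 7 days for symptoms and deaths. Preliminary LD50 (mg/kg) was obtained by graphic interpolation.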

[2] = Acute toxicity, intraperitoneal; set-up: acute toxicity (LD50 / DL50): unit: mg/kg; conditions: mouse, in vivo, ip, male Swiss mice, intraperitoneal, 7 days observation; preliminary, by graphic interpolation; read-out: acute toxicity (LD50 / DL50)
Outline: as §2

[3] = test system: thrombin-induced coagulation of platelet rich plasma; assay: Antithrombin activity on PRP, Hartert's thromboelastograph; format: in vivo, New Zealand rabbits; conditions: percent decrease of index ma/[r+k] vs before treatment, 20 mg/kg intraperitoneal, rabbits; for inhibition in vivo at 20 mg/kg: Oryctolagus cuniculus, Platelet, ip
Outline: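 Compounds were given intraperitoneally at 20 mg/kg, and coagulation of platelet rich plasma was then induced with thrombin (60 units, pH 7.4) and recorded on a Hartert thromboelastograph. Activity is the percent decrease of the ma/(r+k) index relative to the pre-treatment value.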

blood coagulum = assay: Fibrinolytic activity, Fearnley method (lysis of blood coagulum in toto); format: in vivo; conditions: percent decrease of coagulum weight after 30 minutes at 37° C., 25 mg/kg intraperitoneal, rabbits; for fibrinolytic activity (percent decrease of coagulum weight) at 25 mg/kg: Oryctolagus cuniculus, ip, 0.5 h, read-out: fibrinolytic activity (FL)
Outline: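 Rabbits received compounds at 25 mg/kg i.p., and 0.2 ml ear-vein blood was drawn before and after dosing. Blood was mixed with pH 7.4 phosphate buffer and thrombin (50 NIH units/ml solution), held 30 min on ice, then 30 min at 37 °C. Activity is the percent decrease in clot weight.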

[4] = test system: platelet aggregation induced by thrombin; assay: Platelet aggregation inhibitory activity in vivo (Born aggregometer), thrombin-induced; set-up: species or system New Zealand rabbits; conditions: dose for 50% inhibition of thrombin-induced aggregation curve, rabbits, intraperitoneal, blood 2, 4 and 6 hours after injection; for ED50: Oryctolagus cuniculus, Platelet, ip, read-out: platelet antiaggregant activity (AAP), DI50, Thrombin
Outline: as §1

[5] = test system: CaCl2-induced plasma coagulation; assay: Anticoagulant activity on PRP, Hartert's thromboelastograph; format: in vivo, New Zealand rabbits; conditions: percent increase of total time for coagulum formation (r+k) vs before treatment, 25 mg/kg intraperitoneal, rabbits; for change in vivo at 25 mg/kg: Oryctolagus cuniculus, ip, read-out: anticoagulant activity (AC)
Outline: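 Animals dosed at 25 mg/kg i.p.; PRP coagulation induced with 1.29% CaCl2 and followed by Hartert thromboelastography. Activity given as percent increase in r+k (total coagulum formation time) after treatment versus pre-treatment value.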

Compound | ED50 [1] | acute toxicity (in words) (male Swiss mice) | LD50 at 168 h [2] | inhibition in vivo at 20 mg/kg [3] | fibrinolytic activity (percent decrease of coagulum weight) at 25 mg/kg (blood coagulum) | ED50 [4] | change in vivo at 25 mg/kg [5] | platelet antiaggregant activity (AAP), DI50, ADP [1] | acute toxicity (LD50 / DL50) (male Swiss mice; ip, 10080 min) | antithrombin activity (AT) ([3]; 20 mg/kg) | fibrinolytic activity (FL) (blood coagulum; 25 mg/kg) | platelet antiaggregant activity (AAP), DI50, Thrombin [4] | anticoagulant activity (AC) ([5]; 25 mg/kg)
CCCCCCOc1ccc(C(=O)NCc2cccnc2)cc1C(=O)NCc1cccnc1 [Example 4] | 22.9 mg/kg | the acute toxicity increases with an increasing number of carbon atoms in the substituent R" | 175 mg/kg | 47.6% | 41.3% | 17.3 mg/kg | 19.5% |  |  |  |  |  | 
CCCCCCCCOc1ccc(C(=O)NCc2cccnc2)cc1C(=O)NCc1cccnc1 [Example 6] | 25.9 mg/kg | the acute toxicity increases with an increasing number of carbon atoms in the substituent R" | 187 mg/kg | 45.4% | 36.4% | 19.4 mg/kg | 16.9% |  |  |  |  |  | 
CCCCCCCOc1ccc(C(=O)NCc2cccnc2)cc1C(=O)NCc1cccnc1 [Example 5] | 24.6 mg/kg | the acute toxicity increases with an increasing number of carbon atoms in the substituent R" | 181 mg/kg | 46.5% | 38.8% | 18.1 mg/kg | 18% |  |  |  |  |  | 
CCCCCOc1ccc(C(=O)NCc2cccnc2)cc1C(=O)NCc1cccnc1 [Example 3] | 25.3 mg/kg | the acute toxicity increases with an increasing number of carbon atoms in the substituent R" | 380 mg/kg | 43% | 36.2% | 17.5 mg/kg | 27.4% |  |  |  |  |  | 
CCC(C)(C)Oc1c(Cl)cc(C(=O)NCc2cccnc2)cc1C(=O)NCc1cccnc1 [Example 38] |  |  |  |  |  |  |  | 54,3 mg/kg | 322 | 22,0% | 19,3% | 34,6 mg/kg | 12,9%
CCCCOc1ccc(C(=O)NCc2cccnc2)cc1C(=O)NCc1cccnc1 [Example 2] | 26.7 mg/kg | the acute toxicity increases with an increasing number of carbon atoms in the substituent R" | 573 mg/kg | 40.1% | 35.7% | 18.2 mg/kg | 23.2% |  |  |  |  |  | 
CCCOc1ccc(C(=O)NCc2cccnc2)cc1C(=O)NCc1cccnc1 [Example 1] | 27.5 mg/kg | the acute toxicity increases with an increasing number of carbon atoms in the substituent R" | 600 mg/kg | 38.6% | 32.4% | 19.3 mg/kg | 21.5% |  |  |  |  |  | 
